# Measured values taken from US9206128B2 (Constellation Pharmaceuticals, Inc., priority 2011, dated 2015).
# Tests used:
# EZH2 = EZH2 (Homo sapiens, UniProt Q15910); experiment: EZH2 activity inhibition assay (rPRC2, 3H SAM, biotinylated oligonucleosomes, FlashPlate); assay type: biochemical; conditions: rPRC2, 2 nM EZH2, 0.2 μM 3H SAM, top concentration 80 μM
# Procedure: (§1) EZH2 Assay: Assays were carried out by mixing rPRC2 together with biotinylated oligonucleosome substrates in the presence of the radio-labeled enzyme co-factor, S-adenosyl-L-methionine (^3H SAM) (Perkin Elmer) and monitoring the enzymatically mediated transfer of tritiated methyl groups from ^3H SAM to histone lysine residues. The amount of resulting tritiated methyl histone product was measured by first capturing the biotinylated oligonucleosomes in streptavidin (SAV) coated FlashPlates (Perkin Elmer), followed by a wash step to remove un-reacted ^3H SAM, and then counting on a TopCount NXT 384 well plate scintillation counter (Perkin Elmer).
# A 12.5 μL volume of the HMT enzyme, H3K27me3 peptide and oligonucleosome substrate in assay buffer was added to each well of the assay plate using a Multidrop Combi (ThermoFisher). Compounds were pre-incubated with the enzyme for 20 min, followed by initiation of the methyltransferase reaction by addition of 12.5 μL of 3H SAM in assay buffer (final volume=25 μL). […] Stopped reactions were transferred to SAV coated Flashplates (Perkin Elmer), incubated for 120 min, washed with a plate washer, and then read on the TopCount NXT (1.0 min/well) to measure the amount of methyl histone product formed during the reaction.
# Y641N EZH2 = Y641N EZH2 (Homo sapiens, UniProt Q15910, Y641N); experiment: Y641N EZH2 activity inhibition assay (as EZH2 assay, reconstituted H3K27Me2 oligonucleosomes as substrate); assay type: biochemical; conditions: Y641N EZH2 mutant enzyme
# Sequence of Y641N EZH2 (Q15910 whole entry Y641N): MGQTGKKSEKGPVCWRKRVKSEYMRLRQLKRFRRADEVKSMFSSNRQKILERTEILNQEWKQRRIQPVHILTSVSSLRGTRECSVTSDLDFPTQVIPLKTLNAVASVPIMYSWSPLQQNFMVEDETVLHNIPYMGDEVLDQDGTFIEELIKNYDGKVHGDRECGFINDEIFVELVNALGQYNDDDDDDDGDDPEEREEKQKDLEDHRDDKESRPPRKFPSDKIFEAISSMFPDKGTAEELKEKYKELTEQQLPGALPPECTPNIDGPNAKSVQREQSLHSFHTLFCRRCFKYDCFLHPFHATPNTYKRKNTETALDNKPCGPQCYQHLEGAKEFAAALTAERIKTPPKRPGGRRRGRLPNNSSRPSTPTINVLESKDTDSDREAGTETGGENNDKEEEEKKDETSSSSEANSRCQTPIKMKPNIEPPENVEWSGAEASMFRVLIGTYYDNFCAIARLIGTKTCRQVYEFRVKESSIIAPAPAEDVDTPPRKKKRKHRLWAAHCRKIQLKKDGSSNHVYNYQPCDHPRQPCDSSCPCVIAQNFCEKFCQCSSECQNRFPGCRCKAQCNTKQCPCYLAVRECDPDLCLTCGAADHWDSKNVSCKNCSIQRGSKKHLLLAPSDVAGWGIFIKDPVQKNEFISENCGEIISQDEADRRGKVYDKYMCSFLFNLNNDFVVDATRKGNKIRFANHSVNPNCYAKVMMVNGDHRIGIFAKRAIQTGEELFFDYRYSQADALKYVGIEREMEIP
# Sequence of Y641N EZH2 (O75530 whole entry partner): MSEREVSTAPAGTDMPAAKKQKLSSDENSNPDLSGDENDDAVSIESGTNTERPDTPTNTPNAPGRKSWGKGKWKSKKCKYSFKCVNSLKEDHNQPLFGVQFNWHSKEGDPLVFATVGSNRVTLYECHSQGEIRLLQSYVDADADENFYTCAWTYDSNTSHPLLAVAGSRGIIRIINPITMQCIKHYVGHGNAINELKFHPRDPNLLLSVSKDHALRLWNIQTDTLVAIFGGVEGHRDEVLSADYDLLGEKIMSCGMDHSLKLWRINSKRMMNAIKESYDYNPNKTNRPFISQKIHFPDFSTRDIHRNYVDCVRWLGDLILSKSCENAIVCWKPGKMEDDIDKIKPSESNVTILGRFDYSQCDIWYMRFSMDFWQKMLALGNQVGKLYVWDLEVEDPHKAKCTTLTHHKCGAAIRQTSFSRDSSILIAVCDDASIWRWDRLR
# Sequence of Y641N EZH2 (Q15022 whole entry partner): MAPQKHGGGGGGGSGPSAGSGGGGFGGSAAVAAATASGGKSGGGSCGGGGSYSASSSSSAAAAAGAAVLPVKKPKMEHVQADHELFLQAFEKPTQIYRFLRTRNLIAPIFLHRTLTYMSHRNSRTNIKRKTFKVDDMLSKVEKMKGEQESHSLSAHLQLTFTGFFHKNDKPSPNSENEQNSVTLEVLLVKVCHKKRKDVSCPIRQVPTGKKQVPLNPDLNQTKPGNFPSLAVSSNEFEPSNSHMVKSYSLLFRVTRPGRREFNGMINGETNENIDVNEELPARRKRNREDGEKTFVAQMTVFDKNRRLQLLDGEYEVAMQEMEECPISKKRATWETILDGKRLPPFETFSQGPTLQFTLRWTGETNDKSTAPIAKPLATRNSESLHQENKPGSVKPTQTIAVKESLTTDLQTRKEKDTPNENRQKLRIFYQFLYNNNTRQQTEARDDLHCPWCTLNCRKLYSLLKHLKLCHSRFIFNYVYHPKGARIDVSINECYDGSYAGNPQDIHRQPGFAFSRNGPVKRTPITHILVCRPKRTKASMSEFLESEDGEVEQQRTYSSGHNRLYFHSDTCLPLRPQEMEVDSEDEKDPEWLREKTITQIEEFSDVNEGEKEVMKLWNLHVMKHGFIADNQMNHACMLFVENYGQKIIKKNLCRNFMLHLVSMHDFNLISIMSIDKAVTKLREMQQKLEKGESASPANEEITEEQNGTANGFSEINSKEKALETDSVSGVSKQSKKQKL
# Procedure: as §1, with “Elmer). The final assay conditions for EZH2 were as follows: 50 mM Tris Buffer pH 8.5, 1 mM DTT, 69 μM Brij-35 detergent, 5.0 mM MgCl2, 0.1 mg/mL BSA, 0.2 μM ^3H SAM, 0.2 μM biotinylated oligonucleosomes, 3.6 μM H3K27me3 peptide and 2 nM EZH2.” for “Elmer).”
# A 12.5 μL volume of the HMT enzyme, H3K27me3 peptide and oligonucleosome substrate in assay buffer was added to each well of the assay plate using a Multidrop Combi (ThermoFisher). Compounds were pre-incubated with the enzyme for 20 min, followed by initiation of the methyltransferase reaction by addition of 12.5 μL of 3H SAM in assay buffer (final volume=25 μL). The final concentrations of compounds ranged from a top default concentration of 80 μM down to 0.16 μM in ten 2-fold dilution steps. Reactions were carried out for 60 minutes and quenched with 20 μL per well of 1.96 mM SAH, 50 mM Tris PH 8.5, 200 mM EDTA. Stopped reactions were transferred to SAV coated Flashplates (Perkin Elmer), incubated for 120 min, washed with a plate washer, and then read on the TopCount NXT (1.0 min/well) to measure the amount of methyl histone product formed during the reaction.
# Sequence of EZH2 (Q15910 whole entry): as the sequence (Q15910 whole entry Y641N) above, with N641Y counted along it
# Sequence of EZH2 (O75530 whole entry partner): as the sequence (O75530 whole entry partner) above
# Sequence of EZH2 (Q15022 whole entry partner): as the sequence (Q15022 whole entry partner) above
IC50 (EZH2) [µM],IC50 (Y641N EZH2) [µM],Compound
1 to 10,> 80,"Cc1cc(C)c(CNC(=O)c2ccc(CCc3ccccc3)cc2)c(=O)[nH]1 [Compound I-48, N-((2-hydroxy-4,6-dimethylpyridin-3-yl)methyl)-4-phenethylbenzamide]"
10 to 50,10 to 50,"Cc1cc(C)c(CNC(=O)c2ccc(C(CC(C)C)Oc3ccccc3)cc2)c(=O)[nH]1 (stereo not drawn) [Compound I-49, N-((2-hydroxy-4,6-dimethylpyridin-3-yl)methyl)-4-(3-methyl-1-phenoxybutyl)benzamide]"
1 to 10,> 80,Cc1cc(C)c(CNC(=O)c2ccc([C@@H](C)Oc3ccccc3)cc2C)c(=O)[nH]1 [Compound I-50]
1 to 10,> 80,"Cc1cc(C)c(CNC(=O)c2ccc(C3Cc4ccccc4O3)cc2)c(=O)[nH]1 (stereo not drawn) [Compound I-51, 4-(2,3-dihydrobenzofuran-2-yl)-N-((2-hydroxy-4,6-dimethylpyridin-3-yl)methyl)benzamide]"
10 to 50,10 to 50,"Cc1cc(C)c(CNC(=O)c2ccc3c(c2)CCCC3Oc2ccccc2)c(=O)[nH]1 (stereo not drawn) [Compound I-52, N-((2-hydroxy-4,6-dimethylpyridin-3-yl)methyl)-5-phenoxy-5,6,7,8-tetrahydronaphthalene-2-carboxamide]"
10 to 50,10 to 50,"COC(c1ccccc1)c1ccc(C(=O)NCc2c(C)cc(C)[nH]c2=O)cc1 (stereo not drawn) [Compound I-53, N-((2-hydroxy-4,6-dimethylpyridin-3-yl)methyl)-4-(methoxy(phenyl)methyl)benzamide]"
< 1,1 to 10,"Cc1cc(C)c(CNC(=O)c2ccc(COc3ccccc3)c(C)c2)c(=O)[nH]1 [Compound I-54, N-((2-hydroxy-4,6-dimethylpyridin-3-yl)methyl)-3-methyl-4-(phenoxymethyl)benzamide]"
< 1,< 1,"Cc1cc(C)c(CNC(=O)c2ccc([C@H](C)Oc3ccccc3)cc2C)c(=O)[nH]1 [Compound I-55, (S)—N-((2-hydroxy-4,6-dimethylpyridin-3-yl)methyl)-2-methyl-4-(1-phenoxyethyl)benzamide]"
1 to 10,> 80,"Cc1cc(C)c(CNC(=O)c2ccc(C(C)n3ccccc3=O)cc2)c(=O)[nH]1 (stereo not drawn) [Compound I-56, N-((2-hydroxy-4,6-dimethylpyridin-3-yl)methyl)-4-(1-(2-oxopyridin-1(2H)-yl)ethyl)benzamide]"
1 to 10,1 to 10,"Cc1nc(C)c(CNC(=O)c2ccc(Oc3ccccc3)cc2)c(=O)[nH]1 [Compound I-59, N-((4-hydroxy-2,6-dimethylpyrimidin-5-yl)methyl)-4-phenoxybenzamide]"
< 1,1 to 10,"Cc1cc(C)c(CNC(=O)c2ccc(C(C)Oc3ccccn3)cc2)c(=O)[nH]1 (stereo not drawn) [Compound I-60, N-((2-hydroxy-4,6-dimethylpyridin-3-yl)methyl)-4-(1-(pyridin-2-yloxy)ethyl)benzamide]"
< 1,< 1,"Cc1cc(C)c(CNC(=O)c2ccc(C(C)Oc3ccccc3)c(F)c2)c(=O)[nH]1 (stereo not drawn) [Compound I-63, 3-fluoro-N-((2-hydroxy-4,6-dimethylpyridin-3-yl)methyl)-4-(1-phenoxyethyl)benzamide]"
1 to 10,> 80,"Cc1cc(C)c(CNC(=O)c2ccc(C(C)Oc3ccccc3)nc2)c(=O)[nH]1 (stereo not drawn) [Compound I-64, N-((2-hydroxy-4,6-dimethylpyridin-3-yl)methyl)-6-(1-phenoxyethyl)nicotinamide]"
10 to 50,> 80,"Cc1cc(C(F)(F)F)c(CNC(=O)c2ccc(Oc3ccccc3)cc2)c(=O)[nH]1 [Compound I-65, N-((2-hydroxy-6-methyl-4-(trifluoromethyl)pyridin-3-yl)methyl)-4-phenoxybenzamide]"
< 1,< 1,"Cc1cc(C)c(CNC(=O)c2ccc(C(C)Oc3ccccc3)cc2Cl)c(=O)[nH]1 (stereo not drawn) [Compound I-66, 2-chloro-N-((2-hydroxy-4,6-dimethylpyridin-3-yl)methyl)-4-(1-phenoxyethyl)benzamide]"
